From ChEMBL document CHEMBL2069252, “Pyrazole diaminopyrimidines as dual inhibitors of KDR and Aurora B kinases” (Bioorg Med Chem Lett, 2012)
The source made the active and inactive calls. No cut-off for these calls is given here.

Legend:
Mus musculus [1] = experiment: Toxicity in mouse xenografted with human DOHH2 cells assessed as mortality at 10 mg/kg, ip administered Q7d for 3 weeks; details: in vivo, 504 h
DOHH-2 = details: Homo sapiens
Description: Antitumor activity against human DOHH2 cells xenografted in mouse tumor model assessed as tumor growth inhibition at 10 mg/kg, ip administered Q7d for 3 weeks

[2] = target: Platelet-derived growth factor receptor alpha (Homo sapiens, UniProt P16234); experiment: Inhibition of PDGFRalpha by TR-FRET analysis
Sequence of Platelet-derived growth factor receptor alpha (P16234 whole entry): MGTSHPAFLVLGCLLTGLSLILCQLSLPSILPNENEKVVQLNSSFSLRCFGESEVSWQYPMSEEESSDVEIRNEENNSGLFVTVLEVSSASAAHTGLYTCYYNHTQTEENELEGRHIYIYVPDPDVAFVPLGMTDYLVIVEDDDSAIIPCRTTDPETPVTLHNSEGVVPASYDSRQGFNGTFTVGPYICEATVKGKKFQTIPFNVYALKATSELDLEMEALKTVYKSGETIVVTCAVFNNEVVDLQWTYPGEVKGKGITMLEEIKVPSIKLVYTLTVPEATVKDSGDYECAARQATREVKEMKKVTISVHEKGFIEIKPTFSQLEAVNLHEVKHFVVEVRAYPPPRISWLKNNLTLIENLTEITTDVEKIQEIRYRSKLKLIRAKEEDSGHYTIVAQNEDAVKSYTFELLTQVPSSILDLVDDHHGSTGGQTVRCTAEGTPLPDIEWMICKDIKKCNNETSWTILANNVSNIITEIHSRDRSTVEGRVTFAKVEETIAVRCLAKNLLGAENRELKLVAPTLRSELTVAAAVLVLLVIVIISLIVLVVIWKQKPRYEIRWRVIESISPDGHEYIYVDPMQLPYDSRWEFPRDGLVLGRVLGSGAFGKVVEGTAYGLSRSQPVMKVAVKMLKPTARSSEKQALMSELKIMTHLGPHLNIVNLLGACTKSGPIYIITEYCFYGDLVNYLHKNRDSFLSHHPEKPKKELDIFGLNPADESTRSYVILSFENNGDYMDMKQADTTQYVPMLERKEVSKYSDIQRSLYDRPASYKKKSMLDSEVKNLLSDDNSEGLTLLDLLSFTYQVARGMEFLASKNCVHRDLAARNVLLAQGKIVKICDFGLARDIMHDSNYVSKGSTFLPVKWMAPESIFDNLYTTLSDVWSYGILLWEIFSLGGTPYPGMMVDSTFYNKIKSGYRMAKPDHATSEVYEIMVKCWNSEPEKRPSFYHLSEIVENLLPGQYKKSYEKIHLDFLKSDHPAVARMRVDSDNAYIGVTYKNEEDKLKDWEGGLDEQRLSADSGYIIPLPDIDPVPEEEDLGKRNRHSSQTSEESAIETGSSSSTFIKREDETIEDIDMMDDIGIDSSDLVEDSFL

Wee1-like protein kinase = Wee1-like protein kinase (Homo sapiens, UniProt P30291); experiment: Inhibition of Wee1 by TR-FRET analysis
Sequence of Wee1-like protein kinase (P30291 whole entry): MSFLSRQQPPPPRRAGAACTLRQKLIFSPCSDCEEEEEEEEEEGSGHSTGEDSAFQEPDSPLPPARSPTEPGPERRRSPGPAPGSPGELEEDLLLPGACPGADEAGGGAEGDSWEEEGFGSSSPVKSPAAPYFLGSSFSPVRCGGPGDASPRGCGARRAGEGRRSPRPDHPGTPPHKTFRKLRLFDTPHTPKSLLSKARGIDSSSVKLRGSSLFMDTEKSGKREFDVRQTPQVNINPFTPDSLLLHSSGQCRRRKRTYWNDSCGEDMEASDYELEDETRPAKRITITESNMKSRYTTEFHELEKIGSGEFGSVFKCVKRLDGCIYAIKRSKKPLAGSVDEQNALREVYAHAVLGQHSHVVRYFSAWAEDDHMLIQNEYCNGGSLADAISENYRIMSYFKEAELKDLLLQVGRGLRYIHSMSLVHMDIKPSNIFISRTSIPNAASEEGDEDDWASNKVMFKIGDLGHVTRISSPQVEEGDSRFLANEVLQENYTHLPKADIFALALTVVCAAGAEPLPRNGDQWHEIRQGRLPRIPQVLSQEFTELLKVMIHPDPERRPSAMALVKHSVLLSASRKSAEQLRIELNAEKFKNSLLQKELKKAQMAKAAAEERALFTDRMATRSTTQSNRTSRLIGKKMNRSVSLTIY

NCI-H1299 = experiment: Cell cycle arrest in human NCI-H1299 cells assessed as induction of polyploidy after 48 hrs by Hoechst staining-based fluorescence microscopic analysis; format: functional; details: NCI-H1299, 48 h
Mus musculus [3] = experiment: Toxicity in mouse xenografted with human DOHH2 cells assessed as weight loss at 10 mg/kg, ip administered Q7d for 3 weeks; details: in vivo, 504 h
[4] = target: Glycogen synthase kinase-3 beta (Homo sapiens, UniProt P49841); experiment: Inhibition of GSK3beta by TR-FRET analysis
Sequence of Glycogen synthase kinase-3 beta (P49841 whole entry): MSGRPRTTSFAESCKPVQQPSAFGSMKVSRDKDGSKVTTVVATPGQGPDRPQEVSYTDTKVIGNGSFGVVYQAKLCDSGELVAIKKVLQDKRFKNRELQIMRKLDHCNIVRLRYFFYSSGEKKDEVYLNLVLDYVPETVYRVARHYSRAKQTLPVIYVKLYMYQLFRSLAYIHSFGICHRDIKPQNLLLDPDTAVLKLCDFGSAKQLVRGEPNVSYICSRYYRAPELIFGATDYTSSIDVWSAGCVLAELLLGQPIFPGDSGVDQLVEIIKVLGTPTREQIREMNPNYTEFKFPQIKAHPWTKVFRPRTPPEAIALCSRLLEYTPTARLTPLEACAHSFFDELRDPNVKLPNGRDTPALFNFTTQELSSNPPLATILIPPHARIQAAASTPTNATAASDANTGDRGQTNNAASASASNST

Aurora kinase A = target: T1, Aurora kinase A (Homo sapiens, UniProt O14965); experiment: Inhibition of Aurora A by TR-FRET analysis
T1 sequence (O14965 whole entry): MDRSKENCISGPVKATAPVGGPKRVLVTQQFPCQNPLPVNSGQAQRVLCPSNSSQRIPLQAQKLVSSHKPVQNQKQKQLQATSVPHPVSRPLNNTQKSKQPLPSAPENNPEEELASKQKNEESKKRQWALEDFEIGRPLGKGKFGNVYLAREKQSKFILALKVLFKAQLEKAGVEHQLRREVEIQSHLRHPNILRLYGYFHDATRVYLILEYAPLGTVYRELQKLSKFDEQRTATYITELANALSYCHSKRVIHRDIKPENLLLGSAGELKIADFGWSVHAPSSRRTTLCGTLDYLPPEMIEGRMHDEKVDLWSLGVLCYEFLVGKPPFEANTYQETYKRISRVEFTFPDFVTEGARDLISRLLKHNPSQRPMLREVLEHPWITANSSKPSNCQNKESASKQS

[5] = target: T2, Receptor-type tyrosine-protein kinase FLT3 (Homo sapiens, UniProt P36888); experiment: Inhibition of Flt3 by TR-FRET analysis
T2 sequence (P36888 whole entry): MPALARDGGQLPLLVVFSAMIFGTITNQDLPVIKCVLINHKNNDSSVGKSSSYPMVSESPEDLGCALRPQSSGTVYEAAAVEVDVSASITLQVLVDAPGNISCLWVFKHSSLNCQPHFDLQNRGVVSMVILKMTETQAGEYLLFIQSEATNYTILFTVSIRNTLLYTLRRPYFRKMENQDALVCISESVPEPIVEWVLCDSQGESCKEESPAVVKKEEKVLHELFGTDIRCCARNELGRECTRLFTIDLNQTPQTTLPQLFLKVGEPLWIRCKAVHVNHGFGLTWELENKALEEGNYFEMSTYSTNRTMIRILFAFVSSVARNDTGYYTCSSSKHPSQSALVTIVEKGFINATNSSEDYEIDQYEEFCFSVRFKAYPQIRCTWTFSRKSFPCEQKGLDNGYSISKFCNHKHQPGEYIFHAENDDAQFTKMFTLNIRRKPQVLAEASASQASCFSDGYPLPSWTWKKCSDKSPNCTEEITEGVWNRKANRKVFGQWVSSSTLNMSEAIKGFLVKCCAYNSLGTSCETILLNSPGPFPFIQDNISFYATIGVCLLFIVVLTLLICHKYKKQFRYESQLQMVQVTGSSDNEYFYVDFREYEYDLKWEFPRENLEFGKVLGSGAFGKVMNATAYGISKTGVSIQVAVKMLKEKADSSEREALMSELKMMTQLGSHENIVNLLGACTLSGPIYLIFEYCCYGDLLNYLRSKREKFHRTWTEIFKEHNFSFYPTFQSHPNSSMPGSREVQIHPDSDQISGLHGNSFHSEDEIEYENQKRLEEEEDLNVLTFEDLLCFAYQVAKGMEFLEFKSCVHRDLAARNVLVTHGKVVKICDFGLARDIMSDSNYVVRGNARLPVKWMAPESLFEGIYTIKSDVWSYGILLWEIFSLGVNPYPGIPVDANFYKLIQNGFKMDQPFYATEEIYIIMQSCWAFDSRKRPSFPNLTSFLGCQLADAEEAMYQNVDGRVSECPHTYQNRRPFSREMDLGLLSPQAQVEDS

[6] = target: Fibroblast growth factor receptor 2 (Homo sapiens, UniProt P21802); experiment: Inhibition of FGFR2 by TR-FRET analysis
Sequence of Fibroblast growth factor receptor 2 (P21802 whole entry): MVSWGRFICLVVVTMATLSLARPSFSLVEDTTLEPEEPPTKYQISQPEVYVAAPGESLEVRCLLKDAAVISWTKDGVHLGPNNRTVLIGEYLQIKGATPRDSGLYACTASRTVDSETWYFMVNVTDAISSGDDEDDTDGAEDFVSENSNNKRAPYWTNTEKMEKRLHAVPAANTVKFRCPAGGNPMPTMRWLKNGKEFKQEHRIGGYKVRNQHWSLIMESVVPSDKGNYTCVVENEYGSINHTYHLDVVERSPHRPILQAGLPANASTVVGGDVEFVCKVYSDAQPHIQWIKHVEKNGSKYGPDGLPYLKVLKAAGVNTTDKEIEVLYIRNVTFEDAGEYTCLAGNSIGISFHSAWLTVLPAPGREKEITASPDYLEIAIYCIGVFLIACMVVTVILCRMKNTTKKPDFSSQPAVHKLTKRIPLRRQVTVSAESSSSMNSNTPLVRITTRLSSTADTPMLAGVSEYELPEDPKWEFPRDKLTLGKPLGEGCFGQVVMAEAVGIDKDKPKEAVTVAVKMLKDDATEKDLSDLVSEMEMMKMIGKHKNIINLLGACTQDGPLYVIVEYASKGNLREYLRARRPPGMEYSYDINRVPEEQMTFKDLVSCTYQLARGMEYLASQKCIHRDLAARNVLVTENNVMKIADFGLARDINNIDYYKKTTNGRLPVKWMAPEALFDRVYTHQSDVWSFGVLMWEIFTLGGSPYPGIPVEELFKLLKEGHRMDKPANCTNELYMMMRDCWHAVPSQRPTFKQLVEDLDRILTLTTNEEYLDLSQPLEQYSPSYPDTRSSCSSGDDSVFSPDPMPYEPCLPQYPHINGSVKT

[7] = target: T3, Protein kinase C epsilon type (Homo sapiens, UniProt Q02156); experiment: Inhibition of PKCepsilon by TR-FRET analysis
T3 sequence (Q02156 whole entry): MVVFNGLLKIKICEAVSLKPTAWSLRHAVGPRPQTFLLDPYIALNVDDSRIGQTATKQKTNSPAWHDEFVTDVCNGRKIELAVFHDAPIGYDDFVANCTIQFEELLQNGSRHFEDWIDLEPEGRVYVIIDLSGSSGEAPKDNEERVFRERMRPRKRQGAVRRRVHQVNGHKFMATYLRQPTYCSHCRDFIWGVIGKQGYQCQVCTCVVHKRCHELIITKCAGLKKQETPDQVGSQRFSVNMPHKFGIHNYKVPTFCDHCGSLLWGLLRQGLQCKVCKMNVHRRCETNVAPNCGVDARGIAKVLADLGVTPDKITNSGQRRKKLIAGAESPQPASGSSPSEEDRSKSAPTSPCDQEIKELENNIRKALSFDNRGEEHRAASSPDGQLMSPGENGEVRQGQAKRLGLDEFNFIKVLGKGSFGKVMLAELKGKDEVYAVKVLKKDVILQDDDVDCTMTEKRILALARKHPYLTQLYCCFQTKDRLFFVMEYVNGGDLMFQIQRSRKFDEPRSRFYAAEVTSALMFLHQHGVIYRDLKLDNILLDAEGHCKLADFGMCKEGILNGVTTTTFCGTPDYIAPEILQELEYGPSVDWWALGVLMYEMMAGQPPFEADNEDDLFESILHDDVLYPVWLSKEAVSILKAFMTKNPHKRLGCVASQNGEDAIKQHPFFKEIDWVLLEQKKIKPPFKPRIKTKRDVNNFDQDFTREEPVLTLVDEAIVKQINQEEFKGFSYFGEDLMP

SMILES: Cn1cc(Nc2ncc(Br)c(N[C@H]3[C@@H](C(N)=O)[C@@H]4C=C[C@H]3C4)n2)cn1
- Activity (Mus musculus [1]): Toxic
- TGI (DOHH-2): Active
- IC50 [2]: 1 nM
- IC50 (Wee1-like protein kinase): 2800 nM
- EC15 (NCI-H1299): < 3 nM
- Activity (Mus musculus [3]): Toxic
- IC50 [4]: 34 nM
- IC50 (Aurora kinase A): 3 nM
- IC50 [5]: 1 nM
- IC50 [6]: 2 nM
- IC50 [7]: 82 nM
